The source of these data is patent publication US20170038686A1, “ANTHRAQUINONE COMPOUND USED FOR COLOR FILTER OF LCD” (Rohm and Haas Electronic Materials LLC, priority 2014, published 2017).

Type in all cases: physicochemical
Data set [1] in a line: Solubility of dye in PGMEA. Particulars: solvent PGMEA.
Data set [2] in a line: Thermal stability of films (chromaticity difference ΔEab before/after hard baking). Particulars: for ΔEab after baking at 230° C. for another 1 h: film further baked at 230° C. under air for another 1 h; for ΔEab after baking at 230° C. for 1 h: film with alkaline soluble acrylic resin, hard bake 230° C. under air 1 h. Here is the method: For Inventive Example 1, 0.15 g of Dye 1, 1.35 g of PGMEA and 1 g of alkaline soluble acrylic resin solution (MIPHOTO RPR4022, supplied from Miwan Commercial Co., Ltd., 25 to 35% of solid content in methyl 3-methoxypropionate) were mixed and stirred for 2 hours at room temperature using a shaker. For Inventive Example 2, 0.15 g of a mixture of Dye land Dye 2 was used instead of Dye 1. The solutions were filtered with a 0.45 μm PTFE filter to get rid of big particles. Then the filtered solutions were spin coated onto a clean glass substrate with 200 and 270 rpm spin speed for 18 seconds respectively. The obtained films were first dried at 90° C. under air atmosphere for 30 minutes, and then hard baked at 230° C. under air atmosphere for 1 hour. The CIE values (xyY values and lab values) and the UV-Vis were measured before and after the hard bake.
The obtained dry films were further baked at 230° C. under air for 1 hour to evaluate thermal stability of the films. Optical performance after baking (AEab value) were 2.3 (Inventive Example 1) and 1.8 (Inventive Example 2), and the one of after further baking were 3.0 (Inventive Example 1) and 2.7 (Inventive Example 2). A smaller AEab value indicates better heat resistance.
(§1) <Performance Evaluation> • (1) Thermal stability of dyes (Mass loss measured by TGA): • The thermal stability of dye itself was determined by the mass loss of dye measured by TGA under air atmosphere at 230° C. for 1 hour. This evaluation reflects chemical stability of the dye itself. • (2) Film thickness: • Film thickness is measured by scanning the difference in height across the boundary of film and glass substrate with atomic force microscope. • (3) Chromaticity coordinates: • The chromaticity coordinate of film on a glass sheet is directly recorded with UltraScan Pro (Hunterlab) colorimeter. The light source is D65/10. • (4) Thermal stability of films (Chromaticity): • The wet film after spin coating is dried in oven at 90° C. for 30 minutes and then soft baked at 150° C. for 15 minutes. The chromaticity coordinates (L, a, b) are recorded with UltraScan Pro (Hunterlab) colorimeter. D65/10 light source is used and results are based on CIE Lab coordinates. After that the film is hard baked at target temperature (230° C.) for 1 hour and the new chromaticity coordinates (L′, a′, b′) are recorded with the method above. The thermal stability of a film is indicated by the difference of chromaticity coordinate before and after hard baking represented by the following formula;
ΔE=√{square root over ((L−L′)^2+(a−a′)^2+(b−b′)^2)}

The nature of data set [3]: Thermal stability of dyes (mass loss measured by TGA). Particulars: 230° C. for 1 hour, air atmosphere. The procedure: as §1

Each structure is given as a SMILES string.

Regarding `Cc1cc(C)c(Nc2ccc(Nc3c(C)cc(C)cc3C)c3c2C(=O)c2ccccc2C3=O)c(C)c1` [Solvent Blue 104, 1,4-bis(mesitylamino)anthraquinone], the “Solubility in PGMEA” value in data set [1] is reported as 0.6 wt %. In data set [2], the “ΔEab after baking at 230° C. for another 1 h” value (“ΔEab … for another 1 h” for short) turned out to be 6.1 and the “ΔEab after baking at 230° C. for 1 h” value is recorded as 7.9.
For `Cc1cc(C)c(Nc2ccc(Nc3c(C)cc(O)cc3C)c3c2C(=O)c2ccccc2C3=O)c(C)c1` [(1-((4-hydroxy-2,6-dimethylphenyl)amino)-4-(mesitylamino)-anthraquinone], the “Solubility in PGMEA” value in data set [1] was 2.8 wt %. In data set [2], the “ΔEab … for another 1 h” value amounted to 6.0 and the “ΔEab after baking at 230° C. for 1 h” value turned out to be 6.8.
Regarding `CC(C)Nc1ccc(NC(C)C)c2c1C(=O)c1ccccc1C2=O` [Solvent Blue 36], the “Solubility in PGMEA” value in data set [1] was 1.92 wt %. For the same compound, in data set [2], the “ΔEab after baking at 230° C. for 1 h” value is given as 33 (color.
For the compound `Cc1cc(C)c(Nc2ccc(Nc3c(C)cc(OCC(O)COc4ccc(C(C)(C)c5ccc(OCC(O)COc6cc(C)c(Nc7ccc(Nc8c(C)cc(C)cc8C)c8c7C(=O)c7ccccc7C8=O)c(C)c6)cc5)cc4)cc3C)c3c2C(=O)c2ccccc2C3=O)c(C)c1` (stereo not drawn) [Dye 1], in data set [1], the “Solubility in PGMEA” value turned out to be 11.2 wt %. Besides, the “Mass loss by TGA after baking” value in data set [3] was found to be 2 wt. %. Also, in data set [2], the “ΔEab … for another 1 h” value is listed as 3.0 and the “ΔEab after baking at 230° C. for 1 h” value is 2.3.
